Consider 37 compounds from patent publication US11851440B2, “Modulators of eukaryotic initiation factor 2B, compositions and methods” (Denali Therapeutics Inc., priority 2017, dated 2023).

SMILES strings stand for the structures.

For one test, the system named is ISR pathway (ATF4 translation). The test is described as follows: ATF4 Nano Luciferase reporter integrated stress response (ISR) assay in H4 ATF4-NLuc cells. The note with it: Homo sapiens, H4 ATF4-NLuc (clone 17) cells; compound 30 minutes, then 50 um sodium arsenite for 6 hours; luminescence readout.
The IC50 is the point on the concentration scale where inhibition reaches its midpoint. `O=C(COc1ccc(Cl)c(F)c1)NC12CC(c3nnc([C@H]4C[C@@H](OC(F)F)C4)o3)(C1)C2` [Example 51]: the IC50 turned out to be 0.0137 µM.

Compound `O=C(NC12CC(c3nnc([C@H]4C[C@@H](OC(F)(F)F)C4)o3)(C1)C2)c1ccc2cc(C(F)(F)F)ccc2n1` [Example 166, N-[1-[5-[3-cis-(trifluoromethoxy)cyclobutyl]-1,3,4-oxadiazol-2-yl]-3-bicyclo[1.1.1]pentanyl]-6-(trifluoromethyl)quinoline-2-carboxamide] displayed an IC50 of 0.0081 µM.

Compound `O=C(COCCOC(F)(F)F)NC12CC(n3cnc(-c4ccc(Cl)c(F)c4)c3)(C1)C2` [Example 152] yielded an IC50 of 0.0382 µM.

Compound `O=C(NC12CC(c3nnc([C@H]4C[C@@H](OC(F)(F)F)C4)o3)(C1)C2)C1CCc2cc(Cl)ccc2O1` (single isomer, unassigned) [Example 157, 6-chloro-N-(3-(5-(3-cis-(trifluoromethoxy)cyclobutyl)-1,3,4-oxadiazol-2-yl)bicyclo[1.1.1]pentan-1-yl)chroman-2-carboxamide] yielded an IC50 of 0.0092 µM.

As to `O=C(CO[C@H]1C[C@@H](OC(F)(F)F)C1)NC12CC(n3cnc(-c4ccc(F)cc4)c3)(C1)C2` [Example 136], the IC50 stood at 0.022 µM.

The compound `O=C(COc1ccc(Cl)c(F)c1)NC12CC(c3nnc(C4CN(CC(F)(F)F)C4)o3)(C1)C2` [Example 15, 2-(4-chloro-3-fluoro-phenoxy)-N-[1-[5-[1-(2,2,2-trifluoroethyl)azetidin-3-yl]-1,3,4-oxadiazol-2-yl]-3-bicyclo[1.1.1]pentanyl]acetamide] came in with an IC50 of 0.0171 µM.

Compound `O=C(COc1ccc(Cl)c(F)c1)NC12CC(n3cnc([C@H]4C[C@@H](OC(F)(F)F)C4)c3)(C1)C2` [Example 61, 2-(4-chloro-3-fluoro-phenoxy)-N-[3-[4-[3-cis-(trifluoromethoxy)cyclobutyl]imidazol-1-yl]-1-bicyclo[1.1.1]pentanyl]acetamide] came in with an IC50 of 0.0019 µM.

Still in this test, the particulars now being: Homo sapiens, read-out: Activity (IC50), H4 ATF4-NLuc (clone 17) cells; compound 30 minutes, then 50 um sodium arsenite for 6 hours; luminescence readout.
`O=C(COc1ccc(Cl)c(F)c1)NC12CC(c3nnc(C4CC4)o3)(C1)C2` [Example 17, 2-(4-chloro-3-fluoro-phenoxy)-N-[3-(5-cyclopropyl-1,3,4-oxadiazol-2-yl)-1-bicyclo[1.1.1]pentanyl]acetamide]: the IC50 is less than 1 µM.

For `N#C[C@H]1C[C@@H](n2cc(C34CC(NC(=O)COc5ccc(Cl)c(F)c5)(C3)C4)nn2)C1` (relative stereo) [Example 35, 2-(4-chloro-3-fluorophenoxy)-N-(3-(1-((cis)-3-cyanocyclobutyl)-1H-1,2,3-triazol-4-yl)bicyclo[1.1.1]pentan-1-yl)acetamide], the IC50 is less than 1 µM.

`O=C(COc1ccc(Cl)c(F)c1)NC12CC(c3nnc([C@H]4C[C@@H](OC(F)F)C4)o3)(C1)C2` [Example 51]: the 50% inhibitory concentration (IC50) was less than 1 µM.

`O=C(CO[C@H]1C[C@@H](OC(F)(F)F)C1)NC12CC(n3cnc(-c4cnc(C(F)(F)F)nc4)c3)(C1)C2` [Example 231]: the IC50 was less than 1 µM.

Consider `O=C(COc1ccc(Cl)c(F)c1)NC12CC(N3CC(COC(F)(F)F)OC3=O)(C1)C2` (centres unmarked) [Example 223], for which the IC50 lay within 1 to 10 µM.

In the case of `O=C(COC1CC2C(C1)C2(F)F)NC12CC(c3nnc([C@H]4C[C@@H](OC(F)(F)F)C4)o3)(C1)C2` (stereo partly drawn) [Example 83, 2-[(6,6-difluoro-3-bicyclo[3.1.0]hexanyl)oxy]-N-[3-[5-[3-cis-(trifluoromethoxy)cyclobutyl]-1,3,4-oxadiazol-2-yl]-1-bicyclo[1.1.1]pentanyl]acetamide], the IC50 was 1 to 10 µM.

Consider `O=C(COc1ccc(F)cc1)NC12CC(c3nnc([C@H]4C[C@@H](OC(F)(F)F)C4)o3)(C1)C2` [Example 71, 2-(4-fluorophenoxy)-N-[3-[5-[3-cis-(trifluoromethoxy)cyclobutyl]-1,3,4-oxadiazol-2-yl]-1-bicyclo[1.1.1]pentanyl]acetamide], for which the IC50 is less than 1 µM.

For `O=C(CO[C@H]1C[C@@H](OC(F)(F)F)C1)NC12CC(c3nc4cc(Cl)ccc4o3)(C1)C2` [Example 234], the IC50 fell in the range of 1 to 10 µM.

As to `O=C(COc1ccc(Cl)c(F)c1)NC12CC(c3cc(C4CCCC4)on3)(C1)C2` [Example 22, 2-(4-chloro-3-fluorophenoxy)-N-(3-(5-cyclopentylisoxazol-3-yl)bicyclo[1.1.1]pentan-1-yl)acetamide], the IC50 was less than 1 µM.

As to `O=C(CO[C@H]1C[C@@H](OC(F)(F)F)C1)NC12CC(c3nc(-c4ccc(Cl)c(F)c4)no3)(C1)C2` [Example 201], the IC50 was less than 1 µM.

For `O=C(COc1ccc(Cl)c(F)c1)NC12CC(c3nnc([C@H]4C[C@@H](n5ccnn5)C4)o3)(C1)C2` [Example 245], the IC50 was less than 1 µM.

For `O=C(CO[C@H]1C[C@@H](OC(F)(F)F)C1)NC12CC(n3cnc(-c4ccc(C(F)(F)F)cc4)c3)(C1)C2` [Example 150], the IC50 was less than 1 µM.

With `O=C(CO[C@H]1C[C@@H](OC(F)(F)F)C1)NC12CC(n3cnc([C@H]4C[C@@H](OC(F)(F)F)C4)c3)(C1)C2` [Example 63, 2-[3-cis-(trifluoromethoxy)cyclobutoxy]-N-[3-[4-[3-cis-(trifluoromethoxy)cyclobutyl]imidazol-1-yl]-1-bicyclo[1.1.1]pentanyl]acetamide], the IC50 is less than 1 µM.

Turning to `O=C(NC12CC(c3nnc([C@H]4C[C@@H](OC(F)(F)F)C4)o3)(C1)C2)c1ccc2cc(C(F)(F)F)ccc2n1` [Example 166, N-[1-[5-[3-cis-(trifluoromethoxy)cyclobutyl]-1,3,4-oxadiazol-2-yl]-3-bicyclo[1.1.1]pentanyl]-6-(trifluoromethyl)quinoline-2-carboxamide], the IC50 was less than 1 µM.

In the case of `O=C(CO[C@H]1C[C@@H](OC(F)(F)F)C1)NC12CC(c3nnc(C4CC(COC(F)(F)F)C4)o3)(C1)C2` (stereo partly drawn) [Example 107, 2-[3-cis-(trifluoromethoxy)cyclobutoxy]-N-[3-[5-[3-trans-(trifluoromethoxymethyl)cyclobutyl]-1,3,4-oxadiazol-2-yl]-1-bicyclo[1.1.1]pentanyl]acetamide], the IC50 is less than 1 µM.

Regarding `O=C(COCCOC(F)(F)F)NC12CC(n3cnc(-c4ccc(Cl)c(F)c4)c3)(C1)C2` [Example 152], the IC50 was less than 1 µM.

Take `O=C(COc1ccc(Cl)c(F)c1)NC12CC(c3nnc(CC4CC4)o3)(C1)C2` [Example 11, 2-(4-chloro-3-fluoro-phenoxy)-N-[1-[5-(cyclopropylmethyl)-1,3,4-oxadiazol-2-yl]-3-bicyclo[1.1.1]pentanyl]acetamide]: the 50% inhibitory concentration (IC50) is less than 1 µM.

As to `O=C(NC12CC(c3nnc([C@H]4C[C@@H](OC(F)(F)F)C4)o3)(C1)C2)c1cc2ccc(Cl)n2cn1` [Example 181], the IC50 is less than 1 µM.

In the case of `O=C(NC12CC(c3nnc([C@H]4C[C@@H](OC(F)(F)F)C4)o3)(C1)C2)N1CCc2cc(Cl)ccc2C1` [Example 268], the IC50 is less than 1 µM.

Turning to `O=C(NC12CC(c3nnc([C@H]4C[C@@H](OC(F)(F)F)C4)o3)(C1)C2)c1ccc2ccccc2n1` [Example 187], the IC50 is less than 1 µM.

In the case of `O=C(NC12CC(c3nnc([C@H]4C[C@@H](OC(F)(F)F)C4)o3)(C1)C2)c1ncc2cc(Cl)ccc2n1` [Example 195], the IC50 was less than 1 µM.

For the compound `O=C(NC12CC(c3nnc([C@H]4C[C@@H](OC(F)(F)F)C4)o3)(C1)C2)C1CCc2cc(Cl)ccc2O1` (single isomer, unassigned) [Example 157, 6-chloro-N-(3-(5-(3-cis-(trifluoromethoxy)cyclobutyl)-1,3,4-oxadiazol-2-yl)bicyclo[1.1.1]pentan-1-yl)chroman-2-carboxamide], the IC50 was less than 1 µM.

For the compound `O=C(NC12CC(c3nnc([C@H]4C[C@@H](OC(F)(F)F)C4)o3)(C1)C2)c1ccn([C@H]2C[C@@H](OC(F)(F)F)C2)n1` (single isomer, unassigned) [Example 108, 1-[cis-3-(trifluoromethoxy)cyclobutyl]-N-[3-[5-[cis-3-(trifluoromethoxy)cyclobutyl]-1,3,4-oxadiazol-2-yl]-1-bicyclo[1.1.1]pentanyl]pyrazole-3-carboxamide], the IC50 was less than 1 µM.

`O=C(COc1ccc(Cl)c(F)c1)NC12CC(C3=NOC(C4CCC4)C3)(C1)C2` (centres unmarked) [Example 23, 2-(4-chloro-3-fluorophenoxy)-N-(3-(5-cyclobutyl-4,5-dihydroisoxazol-3-yl)bicyclo[1.1.1]pentan-1-yl)acetamide]: the IC50 was less than 1 µM.

With `O=C(COc1ccc(Cl)cc1)NC12CC(c3nnn([C@H]4C[C@@H](OC(F)(F)F)C4)n3)(C1)C2` [Example 242], the IC50 is less than 1 µM.

As for `O=C(COc1ccc(Cl)c(F)c1)NC12CC(c3nc(C4CCC4)co3)(C1)C2` [Example 27, 2-(4-chloro-3-fluoro-phenoxy)-N-[1-(4-cyclobutyloxazol-2-yl)-3-bicyclo[1.1.1]pentanyl]acetamide], the IC50 is less than 1 µM.

`N#C[C@H]1C[C@@H](n2ncc(C34CC(NC(=O)COc5ccc(Cl)c(F)c5)(C3)C4)n2)C1` (relative stereo) [Example 36, 2-(4-chloro-3-fluorophenoxy)-N-(3-(2-((cis)-3-cyanocyclobutyl)-2H-1,2,3-triazol-4-yl)bicyclo[1.1.1]pentan-1-yl)acetamide]: the IC50 was less than 1 µM.

For the compound `O=C(CO[C@H]1C[C@@H](OC(F)(F)F)C1)NC12CC(n3cnc(-c4ccc(F)cc4)c3)(C1)C2` [Example 136], the IC50 is less than 1 µM.

Turning to `O=C(COc1ccc(Cl)c(F)c1)NC12CC(c3nnc(C4CN(CC(F)(F)F)C4)o3)(C1)C2` [Example 15, 2-(4-chloro-3-fluoro-phenoxy)-N-[1-[5-[1-(2,2,2-trifluoroethyl)azetidin-3-yl]-1,3,4-oxadiazol-2-yl]-3-bicyclo[1.1.1]pentanyl]acetamide], the IC50 is less than 1 µM.

For `O=C(COc1ccc(Cl)c(F)c1)NC12CC(n3cnc(CC4CCC4)c3)(C1)C2` [Example 48], the IC50 is less than 1 µM.

On to `O=C(COc1ccc(Cl)c(F)c1)NC12CC(N3CC(C4CCC4)OC3=O)(C1)C2` (centres unmarked) [Example 216], for which the half-maximal inhibitory concentration (IC50) is less than 1 µM.

In the case of `O=C(COc1ccc(Cl)c(F)c1)NC12CC(n3cnc([C@H]4C[C@@H](OC(F)(F)F)C4)c3)(C1)C2` [Example 61, 2-(4-chloro-3-fluoro-phenoxy)-N-[3-[4-[3-cis-(trifluoromethoxy)cyclobutyl]imidazol-1-yl]-1-bicyclo[1.1.1]pentanyl]acetamide], the IC50 is less than 1 µM.

With `C#CC12CC(NC(=O)COc3ccc(Cl)c(F)c3)(C1)C2` [Example 31, 2-(4-chloro-3-fluorophenoxy)-N-(3-ethynylbicyclo[1.1.1]pentan-1-yl)acetamide], the IC50 was 1 to 10 µM.

In the case of `O=C(CO[C@H]1C[C@@H](OC(F)(F)F)C1)NC12CC(c3ncn(-c4ccc(Cl)c(F)c4)n3)(C1)C2` [Example 239], the IC50 was less than 1 µM.

Turning to `O=C(COC1CCC1)NC12CC(c3nnc(COc4ccc(Cl)c(F)c4)[nH]3)(C1)C2` [Example 37, N-(3-(5-((4-chloro-3-fluorophenoxy)methyl)-4H-1,2,4-triazol-3-yl)bicyclo[1.1.1]pentan-1-yl)-2-cyclobutoxyacetamide], the IC50 is 1 to 10 µM.

For the compound `O=C(CC[C@H]1C[C@@H](OC(F)(F)F)C1)NC12CC(c3nnc(C4CC(OC(F)(F)F)C4)o3)(C1)C2` (stereo partly drawn) [Example 75, 3-[3-cis-(trifluoromethoxy)cyclobutyl]-N-[3-[5-[3-cis-(trifluoromethoxy)cyclobutyl]-1,3,4-oxadiazol-2-yl]-1-bicyclo[1.1.1]pentanyl]propanamide], the IC50 fell in the range of 1 to 10 µM.

The same test, now with this note: read-out: Activity (IC50); H4 ATF4-NLuc (clone 17) cells; compound 30 minutes, then 50 um sodium arsenite for 6 hours; luminescence readout.
Turning to `O=C(COc1ccc(Cl)c(F)c1)NC12CC(C3CN(C4CCC4)C(=O)O3)(C1)C2` (centres unmarked) [Example 219], the IC50 is greater than 10 µM.
